# Source: US6376490B1, “Quinoxalinediones” (Pfizer Inc, priority 1997, dated 2002)
# Where a name gives a salt, the structure may show the parent alone.
# Target: T1, glycine site of the NMDA receptor (Rattus norvegicus, UniProt P35439)
# T1 construct: from tissue; host or cells: rat brain membranes
# Assay: Displacement of [3H]-L-689,560 from rat brain membranes (NMDA glycine site binding)
# Conditions: [3H]-L-689,560 method, tris-acetate buffer pH 7.4, 90 minutes, read-out: IC50 (nM), binding affinity for the glycine site of the NMDA receptor
# Protocol: J. Pharm., 104, 74 (1991).
# The binding affinities of a selection of the compounds of the Examples for the glycine site of the NMDA receptor were measured using the [^3H]-L-689,560 method described on page 20 of the description.
row,IC50 [nM],Compound
1,19,Cn1ncnc1-c1c(Cl)c(Cl)cc2[nH]c(=O)c(=O)[nH]c12 [Example 20]
2,4,Cc1nnc(-c2ccccc2)n1-c1c(Cl)c(Cl)cc2[nH]c(=O)c(=O)[nH]c12 [Example 73]

# System: not given
# Assay: not given
# Conditions: not given
row,Compound,melting point [°C]
1,"O=C(O)Cn1nnnc1-c1c(Cl)c(Cl)cc2[nH]c(=O)c(=O)[nH]c12 (hydrate or solvate) [Example 8, 6,7-dichloro-5-(1-carboxymethyltetrazol-5-yl)-2,3(1H,4H)-quinoxalinedione]",286 to 287
2,Cn1ncnc1-c1c(Cl)c(Cl)cc2[nH]c(=O)c(=O)[nH]c12 (hydrate or solvate) [Example 20],> 300
3,"O=c1[nH]c2cc(Cl)c(Cl)c(-c3ccncc3)c2[nH]c1=O [Example 1, 6,7-Dichloro-5-(4-pyridyl)-2,3(1H,4H)-quinoxalinedione]",> 300

# The remaining lines, values ahead:
row,melting point [°C],Compound
1,274 to 276,Cc1nnc(-c2ccccc2)n1-c1c(Cl)c(Cl)cc2[nH]c(=O)c(=O)[nH]c12 (as salt: HCl) (hydrate or solvate) [Example 73]
2,281 to 283,"COC(=O)Cn1nnnc1-c1c(Cl)c(Cl)cc2[nH]c(=O)c(=O)[nH]c12 [Example 108, 6,7-Dichloro-5-(1-methoxycarbonylmethyltetrazol-5-yl)-2,3(1H,4H)-quinoxalinedione]"
3,229 to 231,"COCc1nnc(-c2cccnc2)n1-c1c(Cl)c(C)cc2[nH]c(=O)c(=O)[nH]c12 [Example 109, 6-Chloro-7-methyl-5-[5-methoxymethyl-3-(3-pyridyl)-4H-1,2,4-triazol-4-yl]-2,3(1H,4H)-quinoxalinedione]"
4,> 300,"COCc1nnc(-c2cccnc2)n1-c1c(C)c(Cl)cc2[nH]c(=O)c(=O)[nH]c12 [Example 110, 7-Chloro-6-methyl-5-[5-methoxymethyl-3-(3-pyridyl)-4H-1,2,4-triazol-4-yl]-2,3(1H,4H)-quinoxalinedione]"
